In ChEMBL document CHEMBL4507291 (2021):

Experiments:
[1] = target: Dual specificity protein kinase CLK3 (Homo sapiens) (UniProt P49761)
[2] = target: Dual specificity tyrosine-phosphorylation-regulated kinase 1B (Homo sapiens) (UniProt Q9Y463)
[3] = target: T1, Muscle, skeletal receptor tyrosine-protein kinase (Homo sapiens) (UniProt O15146)
T1 sequence (whole entry): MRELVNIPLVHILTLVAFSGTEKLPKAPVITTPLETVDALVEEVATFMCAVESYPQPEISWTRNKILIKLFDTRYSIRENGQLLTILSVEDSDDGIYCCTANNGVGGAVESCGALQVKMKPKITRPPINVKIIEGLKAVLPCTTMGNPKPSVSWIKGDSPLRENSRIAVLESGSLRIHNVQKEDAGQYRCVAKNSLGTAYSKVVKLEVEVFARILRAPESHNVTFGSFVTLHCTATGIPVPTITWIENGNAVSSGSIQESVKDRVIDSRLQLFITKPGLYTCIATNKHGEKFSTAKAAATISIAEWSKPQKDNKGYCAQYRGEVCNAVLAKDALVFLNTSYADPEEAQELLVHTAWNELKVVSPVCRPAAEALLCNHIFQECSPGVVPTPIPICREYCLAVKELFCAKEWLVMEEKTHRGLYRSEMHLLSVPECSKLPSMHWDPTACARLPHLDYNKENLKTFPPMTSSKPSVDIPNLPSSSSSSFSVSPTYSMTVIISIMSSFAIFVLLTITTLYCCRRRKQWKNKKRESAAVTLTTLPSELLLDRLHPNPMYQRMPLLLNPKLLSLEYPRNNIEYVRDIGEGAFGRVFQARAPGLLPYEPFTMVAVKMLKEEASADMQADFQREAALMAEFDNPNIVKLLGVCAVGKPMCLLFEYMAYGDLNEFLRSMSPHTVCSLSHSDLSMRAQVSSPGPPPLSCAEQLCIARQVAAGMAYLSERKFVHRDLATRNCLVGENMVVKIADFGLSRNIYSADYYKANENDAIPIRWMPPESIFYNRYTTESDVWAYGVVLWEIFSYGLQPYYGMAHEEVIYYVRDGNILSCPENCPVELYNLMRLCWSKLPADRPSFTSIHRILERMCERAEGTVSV

[4] = tested on: Receptor-type tyrosine-protein kinase FLT3 (Homo sapiens), P36888 [D835V]
[5] = target: Phosphatidylinositol 5-phosphate 4-kinase type-2 gamma (Homo sapiens) (UniProt Q8TBX8)
Sequence of Phosphatidylinositol 5-phosphate 4-kinase type-2 gamma (Homo sapiens) (Q8TBX8 whole entry): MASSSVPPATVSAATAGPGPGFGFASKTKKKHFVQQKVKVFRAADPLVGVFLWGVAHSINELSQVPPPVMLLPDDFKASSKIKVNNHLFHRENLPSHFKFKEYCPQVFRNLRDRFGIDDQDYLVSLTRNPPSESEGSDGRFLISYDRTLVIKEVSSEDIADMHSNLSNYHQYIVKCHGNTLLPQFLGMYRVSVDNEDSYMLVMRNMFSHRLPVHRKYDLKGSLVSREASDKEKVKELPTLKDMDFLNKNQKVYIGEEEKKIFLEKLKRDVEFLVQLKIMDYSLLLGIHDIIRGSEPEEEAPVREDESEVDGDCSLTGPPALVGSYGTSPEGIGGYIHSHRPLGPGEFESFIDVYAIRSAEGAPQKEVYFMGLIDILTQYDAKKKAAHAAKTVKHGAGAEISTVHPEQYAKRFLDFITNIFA

[6] = target: T2, Serine/threonine-protein kinase Nek9 (Homo sapiens) (UniProt Q8TD19)
T2 sequence (whole entry): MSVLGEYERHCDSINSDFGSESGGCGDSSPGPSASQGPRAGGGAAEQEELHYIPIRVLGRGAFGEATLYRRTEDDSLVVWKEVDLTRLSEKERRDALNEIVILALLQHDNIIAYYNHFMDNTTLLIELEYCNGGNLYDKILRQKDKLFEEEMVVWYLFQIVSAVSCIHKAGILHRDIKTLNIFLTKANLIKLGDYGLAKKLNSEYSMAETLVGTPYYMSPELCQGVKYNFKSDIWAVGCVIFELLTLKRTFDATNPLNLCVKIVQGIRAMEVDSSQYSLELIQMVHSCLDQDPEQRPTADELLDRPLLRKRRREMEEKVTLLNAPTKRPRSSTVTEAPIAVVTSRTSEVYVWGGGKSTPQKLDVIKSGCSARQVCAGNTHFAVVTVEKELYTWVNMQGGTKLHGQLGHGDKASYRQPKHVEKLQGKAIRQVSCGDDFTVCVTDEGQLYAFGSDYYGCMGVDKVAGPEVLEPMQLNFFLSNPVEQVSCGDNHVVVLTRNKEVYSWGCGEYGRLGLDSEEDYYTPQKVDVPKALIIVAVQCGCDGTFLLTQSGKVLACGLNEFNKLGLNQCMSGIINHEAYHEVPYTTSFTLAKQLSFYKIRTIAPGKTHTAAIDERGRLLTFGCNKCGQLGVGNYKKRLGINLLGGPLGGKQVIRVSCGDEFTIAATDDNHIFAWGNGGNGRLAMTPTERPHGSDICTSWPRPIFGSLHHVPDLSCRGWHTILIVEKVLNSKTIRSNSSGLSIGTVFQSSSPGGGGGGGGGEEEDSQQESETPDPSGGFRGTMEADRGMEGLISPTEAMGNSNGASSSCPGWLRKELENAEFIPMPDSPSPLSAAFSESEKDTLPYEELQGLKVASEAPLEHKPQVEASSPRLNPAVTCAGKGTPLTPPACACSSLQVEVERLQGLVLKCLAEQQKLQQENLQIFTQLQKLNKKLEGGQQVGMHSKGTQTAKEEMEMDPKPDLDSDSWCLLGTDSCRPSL

[7] = target: Dual specificity mitogen-activated protein kinase kinase 2 (Homo sapiens) (UniProt P36507)
Sequence of Dual specificity mitogen-activated protein kinase kinase 2 (Homo sapiens) (P36507 whole entry): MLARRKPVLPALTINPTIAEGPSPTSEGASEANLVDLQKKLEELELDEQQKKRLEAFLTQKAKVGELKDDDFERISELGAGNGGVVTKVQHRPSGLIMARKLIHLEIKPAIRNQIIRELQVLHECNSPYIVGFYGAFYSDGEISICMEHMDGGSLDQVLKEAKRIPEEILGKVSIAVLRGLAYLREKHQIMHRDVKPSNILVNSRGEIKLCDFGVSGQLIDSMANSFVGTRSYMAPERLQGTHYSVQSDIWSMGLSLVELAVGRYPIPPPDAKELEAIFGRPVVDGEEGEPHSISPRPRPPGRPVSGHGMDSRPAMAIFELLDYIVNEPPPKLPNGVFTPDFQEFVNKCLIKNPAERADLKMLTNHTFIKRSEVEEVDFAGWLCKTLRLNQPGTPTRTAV

[8] = target: Cyclin-dependent kinase 2 homolog (Plasmodium falciparum (isolate 3D7)) (UniProt P61075)
Sequence of Cyclin-dependent kinase 2 homolog (Plasmodium falciparum (isolate 3D7)) (P61075 whole entry, the tested form may be a part): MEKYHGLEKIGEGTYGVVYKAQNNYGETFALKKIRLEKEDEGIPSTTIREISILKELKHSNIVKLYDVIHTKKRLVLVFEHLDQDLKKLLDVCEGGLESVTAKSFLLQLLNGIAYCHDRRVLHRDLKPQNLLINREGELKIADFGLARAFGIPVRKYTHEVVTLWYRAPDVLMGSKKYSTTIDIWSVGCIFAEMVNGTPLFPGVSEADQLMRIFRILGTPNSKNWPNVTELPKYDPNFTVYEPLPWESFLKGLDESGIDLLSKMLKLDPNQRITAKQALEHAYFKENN

[9] = target: LIM domain kinase 2 (Homo sapiens) (UniProt P53671)
Sequence of LIM domain kinase 2 (Homo sapiens) (P53671 whole entry, looked up, the tested form may be a part, canonical isoform): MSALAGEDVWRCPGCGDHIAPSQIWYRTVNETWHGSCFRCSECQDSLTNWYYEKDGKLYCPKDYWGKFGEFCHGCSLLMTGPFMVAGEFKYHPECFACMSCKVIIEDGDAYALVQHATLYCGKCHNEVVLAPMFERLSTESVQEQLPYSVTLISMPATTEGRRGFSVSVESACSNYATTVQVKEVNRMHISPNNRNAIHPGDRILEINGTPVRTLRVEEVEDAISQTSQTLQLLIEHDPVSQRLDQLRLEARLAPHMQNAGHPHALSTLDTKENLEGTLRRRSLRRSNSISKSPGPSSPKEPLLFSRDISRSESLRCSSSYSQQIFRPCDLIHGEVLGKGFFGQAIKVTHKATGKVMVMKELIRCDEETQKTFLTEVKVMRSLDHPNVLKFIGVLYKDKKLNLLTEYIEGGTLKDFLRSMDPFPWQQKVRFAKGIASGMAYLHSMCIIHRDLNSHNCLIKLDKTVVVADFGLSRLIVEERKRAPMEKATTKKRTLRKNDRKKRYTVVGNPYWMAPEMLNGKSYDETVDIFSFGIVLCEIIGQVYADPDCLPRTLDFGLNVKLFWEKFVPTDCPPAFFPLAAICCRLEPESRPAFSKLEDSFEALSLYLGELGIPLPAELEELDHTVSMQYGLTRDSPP

[10] = target: Phosphorylase b kinase gamma catalytic chain, skeletal muscle/heart isoform (Homo sapiens) (UniProt Q16816)
Sequence of Phosphorylase b kinase gamma catalytic chain, skeletal muscle/heart isoform (Homo sapiens) (Q16816 whole entry, looked up, canonical isoform): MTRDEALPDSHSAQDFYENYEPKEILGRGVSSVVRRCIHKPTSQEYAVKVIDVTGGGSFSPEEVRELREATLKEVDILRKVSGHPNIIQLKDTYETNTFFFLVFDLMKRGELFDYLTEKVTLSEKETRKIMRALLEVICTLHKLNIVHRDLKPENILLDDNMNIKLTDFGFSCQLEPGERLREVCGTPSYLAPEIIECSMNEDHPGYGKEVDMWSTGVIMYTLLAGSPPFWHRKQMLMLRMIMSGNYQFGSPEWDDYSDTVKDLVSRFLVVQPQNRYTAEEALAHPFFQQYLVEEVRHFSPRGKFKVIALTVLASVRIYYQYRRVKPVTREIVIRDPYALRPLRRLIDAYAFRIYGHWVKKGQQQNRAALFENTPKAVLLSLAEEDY

[11] = target: Ribosomal protein S6 kinase alpha-4 (Homo sapiens) (UniProt O75676)
Sequence of Ribosomal protein S6 kinase alpha-4 (Homo sapiens) (O75676 whole entry, looked up): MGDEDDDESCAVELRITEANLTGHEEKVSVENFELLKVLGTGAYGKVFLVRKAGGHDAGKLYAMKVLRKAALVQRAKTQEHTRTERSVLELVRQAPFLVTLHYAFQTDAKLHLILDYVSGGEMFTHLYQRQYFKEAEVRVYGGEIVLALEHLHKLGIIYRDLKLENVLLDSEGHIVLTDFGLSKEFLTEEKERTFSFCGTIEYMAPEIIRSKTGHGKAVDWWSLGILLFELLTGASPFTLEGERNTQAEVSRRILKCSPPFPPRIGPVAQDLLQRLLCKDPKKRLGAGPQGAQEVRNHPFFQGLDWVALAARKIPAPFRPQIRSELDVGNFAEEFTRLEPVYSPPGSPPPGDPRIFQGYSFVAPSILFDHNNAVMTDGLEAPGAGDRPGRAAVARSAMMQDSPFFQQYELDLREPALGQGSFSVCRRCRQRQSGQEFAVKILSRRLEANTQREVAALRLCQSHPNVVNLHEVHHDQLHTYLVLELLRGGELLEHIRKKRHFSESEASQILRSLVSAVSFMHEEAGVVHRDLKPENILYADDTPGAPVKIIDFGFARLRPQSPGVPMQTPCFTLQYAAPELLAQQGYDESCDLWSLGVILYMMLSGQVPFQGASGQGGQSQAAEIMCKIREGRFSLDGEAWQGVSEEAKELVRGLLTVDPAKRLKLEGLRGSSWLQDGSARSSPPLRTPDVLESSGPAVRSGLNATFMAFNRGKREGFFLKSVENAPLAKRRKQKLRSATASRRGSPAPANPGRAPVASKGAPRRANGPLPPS

[12] = Compound concentration 100.0 nM
[13] = Compound concentration 1000.0 nM

Measured: residual activity

Sequence of Dual specificity protein kinase CLK3 (Homo sapiens) (P49761 whole entry, looked up): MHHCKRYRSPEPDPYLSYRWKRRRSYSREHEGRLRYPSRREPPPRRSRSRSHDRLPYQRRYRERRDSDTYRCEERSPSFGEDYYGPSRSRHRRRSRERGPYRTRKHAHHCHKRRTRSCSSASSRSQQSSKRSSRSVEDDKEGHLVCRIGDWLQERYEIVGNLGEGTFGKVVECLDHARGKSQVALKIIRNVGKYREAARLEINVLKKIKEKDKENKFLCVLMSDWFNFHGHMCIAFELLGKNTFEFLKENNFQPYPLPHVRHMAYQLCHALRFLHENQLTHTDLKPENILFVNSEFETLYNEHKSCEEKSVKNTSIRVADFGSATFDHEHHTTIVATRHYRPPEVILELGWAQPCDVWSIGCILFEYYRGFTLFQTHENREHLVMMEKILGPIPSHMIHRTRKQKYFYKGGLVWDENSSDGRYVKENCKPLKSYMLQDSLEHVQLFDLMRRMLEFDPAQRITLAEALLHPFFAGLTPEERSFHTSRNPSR
Sequence of Dual specificity tyrosine-phosphorylation-regulated kinase 1B (Homo sapiens) (Q9Y463 whole entry, looked up): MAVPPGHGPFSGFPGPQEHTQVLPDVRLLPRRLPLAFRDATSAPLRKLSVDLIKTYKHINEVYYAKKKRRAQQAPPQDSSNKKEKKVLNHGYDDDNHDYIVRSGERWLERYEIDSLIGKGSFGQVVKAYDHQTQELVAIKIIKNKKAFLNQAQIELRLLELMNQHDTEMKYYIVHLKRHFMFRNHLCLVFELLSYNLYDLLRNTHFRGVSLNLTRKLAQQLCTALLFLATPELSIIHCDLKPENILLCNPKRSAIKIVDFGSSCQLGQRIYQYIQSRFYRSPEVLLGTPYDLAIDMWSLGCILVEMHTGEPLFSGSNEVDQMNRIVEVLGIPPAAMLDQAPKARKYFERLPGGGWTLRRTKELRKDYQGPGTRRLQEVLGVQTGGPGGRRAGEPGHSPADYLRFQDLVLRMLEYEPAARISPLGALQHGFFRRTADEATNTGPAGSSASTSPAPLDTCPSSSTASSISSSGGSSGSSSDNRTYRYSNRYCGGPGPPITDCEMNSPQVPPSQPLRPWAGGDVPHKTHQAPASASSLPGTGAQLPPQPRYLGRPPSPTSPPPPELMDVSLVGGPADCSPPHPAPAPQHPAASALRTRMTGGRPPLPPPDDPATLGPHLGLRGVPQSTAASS

C[C@@H]1CN(c2cc(-c3n[nH]c4ccc(OC5(C)CC5)cc34)ncn2)C[C@H](C)O1 [MLi-2]
inactive: [1]; [12] 94% | [2]; [12] 93% | [3]; [12] 56% | [4]; [12] 73% | [5]; [12] 90% | [6]; [12] 100% | [7]; [12] 85% | [8]; [12] 80% | [9]; [12] 91% | [10]; [12] 100% | [11]; [12] 100%

C[C@@H]1CN(c2cc(-c3nn(C)c4ccc(OC5(C)CC5)cc34)ncn2)C[C@H](C)O1 [MLi-2-NC]
inactive: [1]; [13] 98% | [2]; [13] 100% | [3]; [13] 92% | [4]; [13] 86% | [5]; [13] 98% | [6]; [13] 71% | [7]; [13] 73% | [8]; [13] 94% | [9]; [13] 92% | [10]; [13] 90% | [11]; [13] 100%
